Reference: patent US20080009517A1, “Use of nelfinavir as a radiation sensitizer” (The Trustees of the University of Pennsylvania, priority 2005, published 2008)
Entries after “also recorded” stand apart in the source; their conditions may differ.

Assays:
[1] = test system: non-small cell lung carcinoma; details: randomized phase II trial; cited from earlier work
[2] = test system: A549; assay: Clonogenic assay, radiation sensitization, A549 cells; assay type: cell-based; details: A549, 2 Gy, nelfinavir added at least one hour prior to irradiation; mean +/- spread
Description: (§1) Cultures of cells in log growth phase were counted and plated in 60-mm dishes containing 4 ml of media. The cells were allowed to attach and nelfinavir was added to cultures at least one hour prior to irradiation. Cells were irradiated with a Mark I cesium irradiator (J. L. Shepherd, San Fernando, Calif.) at a dose rate of 1.6 Gy/min. Colonies were stained and counted 10-14 days after irradiation. A light box was used to assist in counting colonies. The surviving fraction was calculated by dividing the number of colonies formed by the number of cells plated times plating efficiency (Table 1). Each point value represents the mean surviving fraction from at least six replicate dishes.

[3] = test system: SQ2OB xenograft tumors; assay: In vivo to in vitro clonogenic assay in nude mice with SQ2OB tumors
Description: In an in vivo experiment to examine the nelfinavir-mediated radiation sensitization of tumors, tumors in animals were radiation-sensitized using nelfinavir. FIG. 5 illustrates the results of an in vivo to in vitro clonogenic assay in nude mice with SQ2OB tumors. Mice were treated with 8 Gy radiation, with and without nelfinavir at 0.6 mg/day. […] FIG. 6 illustrates the results of in vivo to in vitro clonogenic assays used to examine in vivo sensitization of tumor cells to drugs. Nelfinavir was delivered to mice at 0.6 mg/day via osmotic pump. The mice had SQ2OB xenograft tumors on hind leg. The pump was placed in mouse 2 days prior to experiment. On the day of experiment, the mouse was anesthetized and irradiated to 8 Gy. The tumor was then harvested and a cell suspension made. The cells were plated and the plating efficiency determined. The result indicted the number of cells that were viable and able to reproduce by forming colonies in each individual group (plating efficiency).

[4] = test system: REF; assay: Clonogenic assay, radiation sensitization, REF cells; assay type: cell-based; details: 2 Gy, nelfinavir added at least one hour prior to irradiation, mean +/- spread
Description: as §1

[5] = test system: SQ20B; assay: Clonogenic assay, radiation sensitization, SQ20B cells; assay type: cell-based, human; details: SQ2OB cells, 5 μM nelfinavir + 2 Gy radiation; control 70%
Description: as §1

[6] = test system: Akt phosphorylation; assay: Western blot of Akt phosphorylation in white blood cells of HIV patients; assay type: in vivo, human; details: HIV patients taking nelfinavir vs. HIV patients not actively using nelfinavir
Description: As a proof of principle, it was examined whether there was down-regulation of Akt in HIV patients who are being actively treated with HPIs. Blood samples were obtained from HIV patients on courses of various combinations of drugs. WBCs were isolated and stained for Akt using a Western Blot. Patients taking nelfinavir had decreased Akt phosphorylation compared to the levels of Akt phosphorylation detected in HIV patients who were not actively using nelfinavir (FIG. 7).

[7] = test system: MIAPACA2; assay: Clonogenic assay, radiation sensitization, MIAPACA2 cells; assay type: cell-based; details: MIAPACA2, 2 Gy, nelfinavir added at least one hour prior to irradiation; mean +/- spread
Description: as §1

[8] = test system: T24; assay: Clonogenic assay, radiation sensitization, T24 cells; assay type: cell-based; details: T24, 2 Gy, nelfinavir added at least one hour prior to irradiation; mean +/- spread
Description: as §1

[9] = test system: Akt phosphorylation at Ser 473; assay: Western blot analysis of Akt phosphorylation in SQ2OB cells; assay type: cell-based, human
Description: Using Western blot analysis, a human head-and-neck cancer cell line, SQ2OB, containing a constitutively-active EGFR receptor and thus, increased signaling through PI3K, was examined for Akt phosphorylation.

Structure (SMILES) | radiographic response rate [1] | nelfinavir SF2 [2] | plating efficiency of tumor cells derived from the mice ([3]; nelfinavir 0.6 mg/day + 8 Gy radiation) | plating efficiency of tumor cells derived from the mice ([3]; nelfinavir alone 0.6 mg/day, no radiation) | nelfinavir SF2 [4] | surviving fraction after 2 Gy (SF2) [5] | Akt phosphorylation in white blood cells [6] | nelfinavir SF2 [7] | nelfinavir SF2 [8] | Akt phosphorylation at Ser 473 ([9]; 5 μM nelfinavir) | Akt phosphorylation at Ser 473 ([9]; 10 μM nelfinavir)
COc1cc2ncnc(Nc3ccc(F)c(Cl)c3)c2cc1OCCCN1CCOCC1 [Iressa, gefitinib] | ~10% |  |  |  |  |  |  |  |  |  | 
Cc1c(O)cccc1C(=O)N[C@@H](CSc1ccccc1)[C@H](O)CN1C[C@H]2CCCC[C@H]2C[C@H]1C(=O)NC(C)(C)C [nelfinavir] |  | 0.410 +/− 0.062 | synergistically decreased; also recorded: significant increase in cell kill | did not result in a change; also recorded: no toxicity | 0.397 +/− 0.054 | 40% | decreased | 0.526 +/− 0.040 | 0.452 +/− 0.023 | down-regulation | abolished
